From patent US7655629B2, “Peptides and their use for the treatment of HIV infections” (priority 2002, dated 2010)
Like-named read-outs stand apart in the source and are kept apart here. Positions of bridges follow the written chain, without caps; N, C: chain ends. Non-standard residues stand in square brackets, D forms with d. Residues, ends and D or L forms follow the SMILES beside them. Chains are numbered I, II in the order given. Dip = N[C@H](C(=O)O)C(c1ccccc1)c1ccccc1; Tic = O=C(O)[C@@H]1Cc2ccccc2CN1; dTic = O=C(O)[C@H]1Cc2ccccc2CN1; NMeL = CN[C@@H](CC(C)C)C(=O)O; AEEA = NCCOCCOCC(=O)O

Columns and labels:
[1] = dog, plasma
Description: (§2) Plasma was spiked resulting in concentrations of 40 μg/ml and stored at 37° C. At time points 0, 15, 30, 45, 60, 120, 180, 240 and 300 min samples of 20 μl were taken. The plasma was immediately mixed for precipitation with the two-fold volume of acetonitrile containing 0.15% (w/v) n-nonyl-β-D-glucopyranoside. Following centrifugation the supernatants were mixed with the two-fold volume of 0.1% (v/v) trifluroacetic acid. Twenty μl of these solutions were analyzed by LC-MS. Chromatography was performed using a gradient with the following eluents: eluent A: water containing 0.06% trifluroacetic acid (v/v), eluent B: acetonitrile/water 80:20 (v/v; with 0.05% trifluoroacetic acid; v/v). A C18 precolumn was used in combination with a C18 separation column (300 Å, 5 μm, 150×1 mm inner diameter) at a flow rate of 30 μl/min. HPLC eluates were ionized by the electrospray technique of a LCQ classic mass spectrometer. Areas of the detected peaks of the peptides of the present invention were measured and used for quantification by external calibration. The calibration curve was linear over a range from 0.5 μg/ml to 250 μg/ml plasma. Half life—defined as the period for a concentration decrease to 50% of the initial concentration—was calculated from the slope of an extrapolated curve plotting the relative peptide concentration at a given time point (logarithm scale) against the incubation time. These experiments allowed the quantitative analysis of peptide concentration in plasma.

[2] = rat, plasma
Description: as §2

[3] = human, plasma
Description: as §2

HIV-1 NL4-3 DTV = details: read-out: IC50 DTV, P4-CCR5 cells, peptide 2 h before infection, readout three days after infection
Summary of the method: (§1)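 P4-CCR5 cells (CD4, CCR5, CXCR4, HIV-1 promoter-driven β-galactosidase) pretreated 2 h with peptide, then infected with virus containing 1 ng p24 antigen and incubated overnight. Cells washed and cultured without peptide; three days post-infection infectivity read by chemiluminescent β-galactosidase assay, in quintuplicate.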

X4-tropic HIV-1 NL4-3 = details: read-out: IC50 NL4-3; P4-CCR5 cells, HIV-1 NL4-3, peptide 2 h before infection, readout three days after infection
Summary of the method: as §1

[4] = cynomolgus monkey, plasma
Description: as §2

SMILES | half-life [1] [h] | half-life [2] [h] | half-life [3] [h] | IC50 (HIV-1 NL4-3 DTV) [nM] | IC50 (X4-tropic HIV-1 NL4-3) [nM] | half-life [4] [h]
CC[C@H](C)[C@H](NC(=O)[C@H](C)NC(=O)[C@H](CCC(=O)O)NC(=O)[C@@H](N)CC(C)C)C(=O)N1CCC[C@H]1C(=O)N[C@@H](CCSC)C(=O)N[C@H]1CSSC[C@@H](C(=O)N[C@@H](Cc2ccccc2)C(=O)N[C@@H](Cc2ccccc2)C(=O)N[C@@H](CC(N)=O)C(=O)N[C@@H](CCCCN)C(=O)N2CCC[C@H]2C(=O)N[C@@H](Cc2ccccc2)C(=O)N[C@H](C(=O)N[C@@H](Cc2ccccc2)C(=O)O)C(C)C)NC(=O)[C@H](CCC(=O)O)NC(=O)[C@@H]2CCCN2C(=O)[C@@H]2CCCN2C(=O)[C@H]([C@@H](C)CC)NC1=O [VIR-273] (H-LEAIPMCIPPECFFNKPFVF-OH; disulfide 7-12) | 12.4 | 0.1 | 4.2 | 1100 | 332 | 3.6
CC[C@H](C)[C@H](NC(=O)[C@H](C)NC(=O)[C@H](CCC(=O)O)NC(=O)[C@@H](N)CC(C)C)C(=O)N1CCC[C@H]1C(=O)N[C@@H](CSSC[C@H](NC(=O)[C@@H]1CCCN1C(=O)[C@@H](NC(=O)[C@H](C)NC(=O)[C@H](CCC(=O)O)NC(=O)[C@@H](N)CC(C)C)[C@@H](C)CC)C(=O)N[C@@H](CO)C(=O)N[C@H](C(=O)N1CCC[C@H]1C(=O)N1CCC[C@H]1C(=O)N[C@@H](CCC(=O)O)C(=O)N[C@@H](Cc1ccccc1)C(=O)N[C@@H](CC(C)C)C(=O)N[C@@H](Cc1ccccc1)C(=O)NCC(=O)N[C@@H](CCCCN)C(=O)N1CCC[C@H]1C(=O)N[C@@H](Cc1ccccc1)C(=O)N[C@H](C(=O)N[C@@H](Cc1ccccc1)C(=O)O)C(C)C)[C@@H](C)CC)C(=O)N[C@@H](CO)C(=O)N[C@H](C(=O)N1CCC[C@H]1C(=O)N1CCC[C@H]1C(=O)N[C@@H](CCC(=O)O)C(=O)N[C@@H](Cc1ccccc1)C(=O)N[C@@H](CC(C)C)C(=O)N[C@@H](Cc1ccccc1)C(=O)NCC(=O)N[C@@H](CCCCN)C(=O)N1CCC[C@H]1C(=O)N[C@@H](Cc1ccccc1)C(=O)N[C@H](C(=O)N[C@@H](Cc1ccccc1)C(=O)O)C(C)C)[C@@H](C)CC [VIR-576] (I: H-LEAIPCSIPPEFLFGKPFVF-OH / II: H-LEAIPCSIPPEFLFGKPFVF-OH; disulfide I:6-II:6) | 12.6 | 2.6 | 5.8 | – | – | 3.8
CC[C@H](C)[C@H](NC(=O)[C@H](C)NC(=O)[C@H](CCC(=O)O)NC(=O)[C@@H](N)CC(C)C)C(=O)N1CCC[C@H]1C(=O)N[C@@H](CCSC)C(=O)N[C@@H](CO)C(=O)N[C@H]1CSSC[C@@H](C(=O)N[C@@H](Cc2ccccc2)C(=O)NCC(=O)N[C@@H](CCCCN)C(=O)N2CCC[C@H]2C(=O)N[C@@H](Cc2ccccc2)C(=O)N[C@H](C(=O)N[C@@H](Cc2ccccc2)C(=O)O)C(C)C)NC(=O)[C@H](Cc2ccccc2)NC(=O)[C@H](CCC(=O)O)NC(=O)[C@@H]2CCCN2C(=O)[C@@H]2CCCN2C1=O [VIR-568] (H-LEAIPMSCPPEFCFGKPFVF-OH; disulfide 8-13) | 4 | 0.1 | 3.9 | 552 | 367 | 2.2
CC[C@H](C)[C@H](NC(=O)[C@H](C)NC(=O)[C@H](CCC(=O)O)NC(=O)[C@@H](N)CC(C)C)C(=O)N1CCC[C@H]1C(=O)N[C@@H](CCSC)C(=O)N[C@@H](CO)C(=O)N[C@H](C(=O)N1CCC[C@H]1C(=O)N1CCC[C@H]1C(=O)N[C@@H](CCC(=O)O)C(=O)N[C@@H](Cc1ccccc1)C(=O)N[C@@H](CC(C)C)C(=O)N[C@@H](Cc1ccccc1)C(=O)NCC(=O)N[C@@H](CCCCN)C(=O)N1CCC[C@H]1C(=O)N[C@@H](Cc1ccccc1)C(=O)N[C@H](C(=O)N[C@@H](Cc1ccccc1)C(=O)NCCOCCOCC(=O)NCCOCCOCC(N)=O)C(C)C)[C@@H](C)CC [VIR-580] (H-LEAIPMSIPPEFLFGKPFVF[AEEA][AEEA]-NH2) | 42 | 1.4 | 38.9 | 497 | 150 | 10.2
CC[C@H](C)[C@H](NC(=O)[C@H](C)NC(=O)[C@H](CCC(=O)O)NC(=O)[C@@H](N)CC(C)C)C(=O)N1CCC[C@H]1C(=O)N[C@H]1CSSC[C@@H](C(=O)N[C@H](C(=O)NCC(=O)N[C@@H](Cc2ccccc2)C(=O)NCC(=O)N[C@@H](CCCCN)C(=O)N2CCC[C@H]2C(=O)N[C@@H](Cc2ccccc2)C(=O)N[C@H](C(=O)N[C@@H](Cc2ccccc2)C(=O)O)C(C)C)C(C)C)NC(=O)[C@H]2CCCN2C(=O)[C@@H]2CCCN2C(=O)[C@H]([C@@H](C)CC)NC(=O)[C@H](CO)NC1=O [VIR-348, LEAIPCSIPpCVGFGKPFVF] (H-LEAIPCSIP[dP]CVGFGKPFVF-OH; disulfide 6-11) | 9.3 | 0.2 | 3.3 | 541 | 326 | 3
CC[C@H](C)[C@H](NC(=O)[C@H](CC(=O)O)NC(=O)[C@H](CCC(=O)O)NC(=O)[C@@H](N)CC(C)C)C(=O)N1CCC[C@H]1C(=O)N[C@H]1CSSC[C@@H](C(=O)N[C@H](C(=O)N[C@@H](C)C(=O)N[C@@H](Cc2ccccc2)C(=O)N[C@@H](CC(N)=O)C(=O)N[C@@H](CCCCN)C(=O)N2CCC[C@H]2C(=O)N[C@@H](Cc2ccccc2)C(=O)N[C@H](C(=O)N[C@@H](Cc2ccccc2)C(=O)O)C(C)C)C(C)C)NC(=O)[C@H]2CCCN2C(=O)[C@@H]2CCCN2C(=O)[C@H]([C@@H](C)CC)NC(=O)[C@H](CO)NC1=O [VIR-357, LEDIPCSIPpCVAFNKPFVF] (H-LEDIPCSIP[dP]CVAFNKPFVF-OH; disulfide 6-11) | 71.5 | 0.6 | 23.3 | 704 | 497 | 13.2
CC[C@H](C)[C@H](NC(=O)[C@H](CCCCN)NC(=O)[C@H](CCC(=O)O)NC(=O)[C@@H](N)CC(C)C)C(=O)N1CCC[C@H]1C(=O)N[C@@H](CCSC)C(=O)N[C@@H](CO)C(=O)N[C@H](C(=O)N1CCC[C@H]1C(=O)N1CCC[C@@H]1C(=O)N[C@@H](CCC(=O)O)C(=O)N[C@H](C(=O)N1Cc2ccccc2C[C@H]1C(=O)N[C@@H](Cc1ccccc1)C(=O)N[C@@H](CC(N)=O)C(=O)N[C@@H](CCCCN)C(=O)N1CCC[C@H]1C(=O)N[C@@H](Cc1ccccc1)C(=O)N[C@H](C(=O)N[C@@H](Cc1ccccc1)C(=O)O)C(C)C)C(C)C)[C@@H](C)CC [VIR-455, LEKIPMSIPpEV(L-Tic)FNKPFVF] (H-LEKIPMSIP[dP]EV[Tic]FNKPFVF-OH) | 8.6 | 0.3 | 5.8 | 353 | 134 | 6.8
CC[C@H](C)[C@H](NC(=O)[C@H](C)NC(=O)[C@H](CCC(=O)O)NC(=O)[C@H](CC(C)C)NC)C(=O)N1CCC[C@H]1C(=O)N[C@@H](CCSC)C(=O)N[C@@H](CO)C(=O)N[C@H](C(=O)N1CCC[C@H]1C(=O)N1CCC[C@H]1C(=O)N[C@@H](CCC(=O)O)C(=O)N[C@@H](Cc1ccccc1)C(=O)N[C@@H](CC(C)C)C(=O)N[C@@H](Cc1ccccc1)C(=O)NCC(=O)N[C@@H](CCCCN)C(=O)N1CCC[C@H]1C(=O)N[C@@H](Cc1ccccc1)C(=O)N[C@H](C(=O)N[C@@H](Cc1ccccc1)C(=O)O)C(C)C)[C@@H](C)CC [VIR-512] (H-[NMeL]EAIPMSIPPEFLFGKPFVF-OH) | 48.1 | > 6 | 315 | 615 | 138 | 33.6
CC[C@H](C)[C@H](NC(=O)[C@H](C)NC(=O)[C@H](CCC(=O)O)NC(=O)[C@@H](N)CC(C)C)C(=O)N1CCC[C@H]1C(=O)N[C@H]1CSSC[C@@H](C(=O)N[C@@H](Cc2ccccc2)C(=O)N[C@@H](CC(C)C)C(=O)N[C@@H](Cc2ccccc2)C(=O)NCC(=O)N[C@@H](CCCCN)C(=O)N2CCC[C@H]2C(=O)N[C@@H](Cc2ccccc2)C(=O)N[C@H](C(=O)N[C@@H](Cc2ccccc2)C(=O)O)C(C)C)NC(=O)[C@@H]2CCCN2C(=O)[C@@H]2CCCN2C(=O)[C@H]([C@@H](C)CC)NC(=O)[C@H](CO)NC1=O [VIR-345] (H-LEAIPCSIPPCFLFGKPFVF-OH; disulfide 6-11) | 10.7 | 0.1 | 5.6 | 376 | 298 | 5.1
CC[C@H](C)[C@H](NC(=O)[C@H](C)NC(=O)[C@H](CCC(=O)O)NC(=O)[C@@H](N)CC(C)C)C(=O)N1CCC[C@H]1C(=O)N[C@@H](CCSC)C(=O)N[C@@H](CO)C(=O)N[C@H](C(=O)N1CCC[C@H]1C(=O)N1CCC[C@@H]1C(=O)N[C@@H](CCC(=O)O)C(=O)N[C@H](C(=O)N[C@@H](C)C(=O)N[C@@H](Cc1ccccc1)C(=O)N[C@@H](CC(N)=O)C(=O)N[C@@H](CCCCN)C(=O)N1CCC[C@H]1C(=O)N[C@@H](Cc1ccccc1)C(=O)N[C@H](C(=O)N[C@@H](Cc1ccccc1)C(=O)O)C(C)C)C(c1ccccc1)c1ccccc1)[C@@H](C)CC [VIR-261, LEAIPMSIPpE(3,3-diphenylalanine)AFNKPFVF] (H-LEAIPMSIP[dP]E[Dip]AFNKPFVF-OH) | 15.1 | 0.2 | 7 | 1030 | 538 | 6.5
CC[C@H](C)[C@H](NC(=O)[C@H](CCCCN)NC(=O)[C@H](CCC(=O)O)NC(=O)[C@@H](N)CC(C)C)C(=O)N1CCC[C@H]1C(=O)N[C@@H](CCSC)C(=O)N[C@@H](CO)C(=O)N[C@H](C(=O)N1CCC[C@H]1C(=O)N1CCC[C@@H]1C(=O)N[C@@H](CCC(=O)O)C(=O)N[C@H](C(=O)N1Cc2ccccc2C[C@@H]1C(=O)N[C@@H](Cc1ccccc1)C(=O)N[C@@H](CC(N)=O)C(=O)N[C@@H](CCCCN)C(=O)N1CCC[C@H]1C(=O)N[C@@H](Cc1ccccc1)C(=O)N[C@H](C(=O)N[C@@H](Cc1ccccc1)C(=O)O)C(C)C)C(C)C)[C@@H](C)CC [VIR-454, LEKIPMSIPpEV(D-Tic)FNKPFVF] (H-LEKIPMSIP[dP]EV[dTic]FNKPFVF-OH) | 15.6 | 0.2 | 4.4 | 1090 | 464 | 4.4
